A short description of the assay: Antioxidant activity, ABTS microplate assay (Trolox standard). The class given is biochemical. The conditions noted are these: FIG. 3; result in words. The source says:
Since antioxidants neutralize the ROS, antioxidant activity of the nutraceutical would be of importance for product development. The principle underlying the antioxidant assay is formation of a ferryl myoglobin radical from metmyoglobin and hydrogen peroxide, which oxidizes ABTS (2,2′-azino-bis(3-ethylbenzthiazoline-6-sulfonic acid) to produce radical cation, ABTS+, a soluble chromogen that is green in color and can be determined spectrophotometrically at 405 nm. Antioxidants suppress the production of the radical cation in a concentration dependent manner and the color intensity decreases proportionally. Trolox, a water soluble vitamin E analog, is used as a control antioxidant for analyzing the antioxidant activity of other nutraceuticals/compounds. Microplate assay was used for the analysis of antioxidant activity with different products according to the procedure described in the Antioxidant assay kit (Sigma-Aldrich, St. Louis, Mo.). The relative antioxidant concentration (mM equivalent of Trolox standard) was calculated from the absorbance readings.

Each structure is given as a SMILES string.

Consider `C=CCc1ccc(O)c(-c2ccc(O)c(CC=C)c2)c1` [H, honokiol], for which the “antioxidant activity (relative ranking)” value was “least anti-oxidant activity”.

Values taken from patent US11596647B2, “Administration of synergistic amounts of modified citrus pectin and honokiol to treat inflammation and anti-oxidant needs” (ECONUGENICS INC, priority 2016, dated 2023).
